{"source": "paper PMC7180948", "about": "“New Insights into 4-Anilinoquinazolines as Inhibitors of Cardiac Troponin I–Interacting Kinase (TNNi3K)” (Molecules, 2020)", "assay_in_all_cases": "biochemical", "design_in_all_cases": "KINOMEscan competition binding panel (Eurofins DiscoverX), single concentration, percent inhibition", "conditions_in_all_cases": "read-out: 15 at 1 µM % inhibition", "key": {"[1]": {"target": "PRKD3 (Homo sapiens, UniProt O94806)", "procedure,_shortened": "(§1)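 A single 1 µM concentration of each compound is screened across upwards of 400 human kinases using the KINOMEscan format.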"}, "[2]": {"target": "SGK2 (Homo sapiens, UniProt Q9HBY8)", "procedure,_shortened": "as §1"}, "[3]": {"target": "RIOK3 (Homo sapiens, UniProt O14730)", "sequence (O14730 whole entry)": "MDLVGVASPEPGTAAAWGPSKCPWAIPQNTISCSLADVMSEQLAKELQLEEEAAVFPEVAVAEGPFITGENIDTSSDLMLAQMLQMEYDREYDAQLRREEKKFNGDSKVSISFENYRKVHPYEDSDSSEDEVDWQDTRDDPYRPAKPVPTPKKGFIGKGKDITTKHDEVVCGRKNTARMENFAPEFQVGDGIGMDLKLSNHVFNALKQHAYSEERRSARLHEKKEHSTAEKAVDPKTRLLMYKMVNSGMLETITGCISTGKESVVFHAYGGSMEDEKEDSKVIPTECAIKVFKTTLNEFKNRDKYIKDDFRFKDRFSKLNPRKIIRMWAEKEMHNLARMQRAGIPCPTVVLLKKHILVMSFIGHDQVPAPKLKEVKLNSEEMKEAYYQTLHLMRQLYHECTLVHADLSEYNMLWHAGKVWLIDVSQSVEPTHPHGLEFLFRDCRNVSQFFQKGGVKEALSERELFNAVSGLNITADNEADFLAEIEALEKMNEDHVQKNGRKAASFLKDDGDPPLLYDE", "procedure,_shortened": "as §1"}, "[4]": {"target": "CAMK1D (Homo sapiens, UniProt Q8IU85)", "procedure,_shortened": "as §1"}, "[5]": {"target": "T1, FAK (Homo sapiens, UniProt Q05397)", "T1 construct": "gene PTK2", "T1 sequence (Q05397 whole entry)": "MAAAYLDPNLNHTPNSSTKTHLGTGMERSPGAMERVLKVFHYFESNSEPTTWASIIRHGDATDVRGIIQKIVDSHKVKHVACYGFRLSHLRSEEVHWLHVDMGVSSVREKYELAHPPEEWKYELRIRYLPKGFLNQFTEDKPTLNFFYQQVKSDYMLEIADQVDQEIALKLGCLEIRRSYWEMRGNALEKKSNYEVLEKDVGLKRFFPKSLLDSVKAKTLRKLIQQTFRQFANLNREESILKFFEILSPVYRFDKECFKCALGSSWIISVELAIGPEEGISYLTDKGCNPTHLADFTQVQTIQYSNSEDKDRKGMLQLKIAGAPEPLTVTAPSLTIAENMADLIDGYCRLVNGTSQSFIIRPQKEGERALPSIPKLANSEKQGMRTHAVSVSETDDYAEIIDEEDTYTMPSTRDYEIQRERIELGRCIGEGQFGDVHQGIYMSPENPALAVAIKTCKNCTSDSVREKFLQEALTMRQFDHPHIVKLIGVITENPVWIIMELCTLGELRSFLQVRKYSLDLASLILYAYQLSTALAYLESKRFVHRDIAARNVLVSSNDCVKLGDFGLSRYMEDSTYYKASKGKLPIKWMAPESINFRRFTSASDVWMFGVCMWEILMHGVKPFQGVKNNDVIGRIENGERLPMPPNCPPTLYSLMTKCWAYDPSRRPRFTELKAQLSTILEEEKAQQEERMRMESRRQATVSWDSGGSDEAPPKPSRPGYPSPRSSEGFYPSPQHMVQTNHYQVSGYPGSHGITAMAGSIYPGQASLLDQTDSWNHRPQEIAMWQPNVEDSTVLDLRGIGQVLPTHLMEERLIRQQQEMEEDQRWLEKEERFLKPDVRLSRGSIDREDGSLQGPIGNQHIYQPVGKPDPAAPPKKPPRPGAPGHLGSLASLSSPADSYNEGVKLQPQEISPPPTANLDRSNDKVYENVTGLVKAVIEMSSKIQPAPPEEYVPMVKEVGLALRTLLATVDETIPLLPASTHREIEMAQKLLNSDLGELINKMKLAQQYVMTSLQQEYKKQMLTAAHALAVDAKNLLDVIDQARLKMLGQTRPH", "procedure,_shortened": "as §1"}, "[6]": {"target": "ERBB4 (Homo sapiens, UniProt Q15303)", "sequence (Q15303 whole entry)": "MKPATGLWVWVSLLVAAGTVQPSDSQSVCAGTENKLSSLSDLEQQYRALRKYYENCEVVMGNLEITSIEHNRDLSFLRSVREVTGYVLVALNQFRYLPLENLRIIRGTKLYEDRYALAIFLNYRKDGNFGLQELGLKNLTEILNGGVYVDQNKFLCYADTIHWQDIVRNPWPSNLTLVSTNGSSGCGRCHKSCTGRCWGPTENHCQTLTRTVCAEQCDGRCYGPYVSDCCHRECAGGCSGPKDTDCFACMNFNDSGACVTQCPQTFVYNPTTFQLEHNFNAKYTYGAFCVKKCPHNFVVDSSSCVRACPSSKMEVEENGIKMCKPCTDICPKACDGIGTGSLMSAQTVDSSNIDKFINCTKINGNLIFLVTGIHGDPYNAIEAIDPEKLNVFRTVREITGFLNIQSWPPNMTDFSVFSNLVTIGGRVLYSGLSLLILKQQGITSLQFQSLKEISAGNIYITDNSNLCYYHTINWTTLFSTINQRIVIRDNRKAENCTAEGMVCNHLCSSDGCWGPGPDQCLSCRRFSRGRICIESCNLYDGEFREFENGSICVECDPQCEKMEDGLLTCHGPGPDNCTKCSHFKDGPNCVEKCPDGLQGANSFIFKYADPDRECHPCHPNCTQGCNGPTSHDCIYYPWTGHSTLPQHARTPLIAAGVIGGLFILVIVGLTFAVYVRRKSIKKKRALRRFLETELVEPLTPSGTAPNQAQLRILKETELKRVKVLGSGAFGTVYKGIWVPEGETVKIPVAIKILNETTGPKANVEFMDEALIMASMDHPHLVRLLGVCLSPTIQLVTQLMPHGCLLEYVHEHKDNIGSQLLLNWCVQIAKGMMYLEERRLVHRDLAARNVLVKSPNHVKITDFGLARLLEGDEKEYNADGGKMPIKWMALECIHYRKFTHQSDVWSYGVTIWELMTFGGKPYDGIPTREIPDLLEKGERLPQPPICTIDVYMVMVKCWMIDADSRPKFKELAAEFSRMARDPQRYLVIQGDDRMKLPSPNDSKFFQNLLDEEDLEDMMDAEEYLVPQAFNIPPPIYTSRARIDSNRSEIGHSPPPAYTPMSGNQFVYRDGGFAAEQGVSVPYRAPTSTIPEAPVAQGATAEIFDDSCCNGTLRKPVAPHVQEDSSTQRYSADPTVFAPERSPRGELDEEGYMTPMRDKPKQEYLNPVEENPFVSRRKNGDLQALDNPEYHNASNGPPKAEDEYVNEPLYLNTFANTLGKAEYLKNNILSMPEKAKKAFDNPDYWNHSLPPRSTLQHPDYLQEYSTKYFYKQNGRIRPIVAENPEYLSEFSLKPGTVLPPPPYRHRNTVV", "procedure,_shortened": "as §1"}, "[7]": {"target": "MERTK (Homo sapiens, UniProt Q12866)", "procedure,_shortened": "as §1"}, "[8]": {"target": "TSSK1B (Homo sapiens, UniProt Q9BXA7)", "procedure,_shortened": "as §1"}, "[9]": {"target": "T2, BIKE (Homo sapiens, UniProt Q9NSY1)", "T2 construct": "gene BMP2K", "procedure,_shortened": "as §1"}, "[10]": {"target": "RIPK4 (Homo sapiens, UniProt P57078)", "procedure,_shortened": "as §1"}, "[11]": {"target": "T3, MEK2 (Homo sapiens, UniProt P36507)", "T3 construct": "gene MAP2K2", "T3 sequence (P36507 whole entry)": "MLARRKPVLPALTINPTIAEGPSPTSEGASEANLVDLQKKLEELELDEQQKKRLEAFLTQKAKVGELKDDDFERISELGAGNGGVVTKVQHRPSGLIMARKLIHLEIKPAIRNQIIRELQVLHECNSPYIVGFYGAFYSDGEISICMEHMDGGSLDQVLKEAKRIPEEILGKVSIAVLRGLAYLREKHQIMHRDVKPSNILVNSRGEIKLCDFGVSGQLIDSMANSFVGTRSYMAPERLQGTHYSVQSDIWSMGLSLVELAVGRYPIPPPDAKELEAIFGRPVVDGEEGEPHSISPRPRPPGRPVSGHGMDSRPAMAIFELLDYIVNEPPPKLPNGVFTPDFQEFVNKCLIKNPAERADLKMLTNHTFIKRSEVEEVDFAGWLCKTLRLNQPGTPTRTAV", "procedure,_shortened": "as §1"}, "[12]": {"target": "NEK9 (Homo sapiens, UniProt Q8TD19)", "procedure,_shortened": "as §1"}, "[13]": {"target": "T4, IKK-epsilon (Homo sapiens, UniProt Q14164)", "T4 construct": "gene IKBKE", "procedure,_shortened": "as §1"}, "[14]": {"target": "PIP5K1C (Homo sapiens, UniProt O60331)", "sequence (O60331 whole entry)": "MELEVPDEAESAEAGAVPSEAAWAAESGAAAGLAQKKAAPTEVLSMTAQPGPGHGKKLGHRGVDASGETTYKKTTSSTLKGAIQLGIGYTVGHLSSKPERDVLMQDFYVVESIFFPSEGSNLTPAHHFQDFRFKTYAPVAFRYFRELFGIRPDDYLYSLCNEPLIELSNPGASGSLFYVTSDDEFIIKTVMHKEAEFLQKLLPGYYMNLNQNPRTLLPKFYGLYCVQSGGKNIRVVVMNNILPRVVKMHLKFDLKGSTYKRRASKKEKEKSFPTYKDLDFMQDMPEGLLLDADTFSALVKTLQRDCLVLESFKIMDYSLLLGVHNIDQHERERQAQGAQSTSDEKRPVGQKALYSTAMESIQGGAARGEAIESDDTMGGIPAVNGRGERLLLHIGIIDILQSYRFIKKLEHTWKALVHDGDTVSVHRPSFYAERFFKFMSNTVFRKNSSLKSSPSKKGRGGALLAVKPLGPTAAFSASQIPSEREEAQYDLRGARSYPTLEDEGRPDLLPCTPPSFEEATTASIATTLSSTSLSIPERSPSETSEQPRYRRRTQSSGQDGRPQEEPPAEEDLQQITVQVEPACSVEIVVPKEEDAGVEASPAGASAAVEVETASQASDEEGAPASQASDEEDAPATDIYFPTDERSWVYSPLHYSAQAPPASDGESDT", "procedure,_shortened": "as §1"}, "[15]": {"target": "PRKD1 (Homo sapiens, UniProt Q15139)", "sequence (Q15139 whole entry)": "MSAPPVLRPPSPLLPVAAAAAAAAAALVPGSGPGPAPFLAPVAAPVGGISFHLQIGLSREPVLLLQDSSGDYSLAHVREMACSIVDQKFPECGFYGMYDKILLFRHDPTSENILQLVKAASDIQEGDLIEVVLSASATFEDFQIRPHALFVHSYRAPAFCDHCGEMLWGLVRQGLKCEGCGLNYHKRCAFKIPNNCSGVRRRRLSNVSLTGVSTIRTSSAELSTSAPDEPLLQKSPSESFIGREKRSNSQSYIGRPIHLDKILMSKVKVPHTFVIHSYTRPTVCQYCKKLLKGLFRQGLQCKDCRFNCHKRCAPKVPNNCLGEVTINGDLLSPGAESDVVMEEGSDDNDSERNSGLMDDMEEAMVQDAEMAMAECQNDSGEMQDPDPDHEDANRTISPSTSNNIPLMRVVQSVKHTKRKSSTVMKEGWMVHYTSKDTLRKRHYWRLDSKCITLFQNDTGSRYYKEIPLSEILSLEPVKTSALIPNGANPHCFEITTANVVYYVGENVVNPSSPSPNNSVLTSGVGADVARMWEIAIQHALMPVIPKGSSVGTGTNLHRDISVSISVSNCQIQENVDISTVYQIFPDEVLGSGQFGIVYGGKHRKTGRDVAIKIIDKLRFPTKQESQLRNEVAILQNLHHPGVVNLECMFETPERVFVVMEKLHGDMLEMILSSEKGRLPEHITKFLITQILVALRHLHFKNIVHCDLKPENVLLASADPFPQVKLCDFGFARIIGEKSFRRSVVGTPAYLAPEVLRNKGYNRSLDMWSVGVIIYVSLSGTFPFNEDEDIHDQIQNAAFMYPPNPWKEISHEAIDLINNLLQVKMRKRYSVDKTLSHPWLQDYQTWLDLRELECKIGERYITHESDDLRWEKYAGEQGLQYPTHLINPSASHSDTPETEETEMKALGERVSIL", "procedure,_shortened": "as §1"}, "[16]": {"target": "TIE1 (Homo sapiens, UniProt P35590)", "procedure,_shortened": "as §1"}, "[17]": {"target": "NEK10 (Homo sapiens, UniProt Q6ZWH5)", "procedure,_shortened": "as §1"}, "[18]": {"target": "PIK3C2B (Homo sapiens, UniProt O00750)", "procedure,_shortened": "as §1"}, "[19]": {"target": "BMPR2 (Homo sapiens, UniProt Q13873)", "procedure,_shortened": "as §1"}, "[20]": {"target": "CSNK1G2 (Homo sapiens, UniProt P78368)", "procedure,_shortened": "as §1"}, "[21]": {"target": "WNK2 (Homo sapiens, UniProt Q9Y3S1)", "procedure,_shortened": "as §1"}, "[22]": {"target": "DYRK1A (Homo sapiens, UniProt Q13627)", "procedure,_shortened": "as §1"}, "[23]": {"target": "EPHA7 (Homo sapiens, UniProt Q15375)", "procedure,_shortened": "as §1"}, "[24]": {"target": "T5, PCTK2 (Homo sapiens, UniProt Q00537)", "T5 construct": "gene CDK17", "procedure,_shortened": "as §1"}}, "data": [{"compound": "CNS(=O)(=O)c1ccc(N(C)C)c(Nc2nc(C)nc3cc(OC)c(OC)cc23)c1", "note": "[compound 15, 3-((6,7-dimethoxy-2-methylquinazolin-4-yl)amino)-4-(dimethylamino)-N-methylbenzenesulfonamide]", "values": [{"measurement": "inhibition at 1 µM", "setting": "[1]", "result": 0, "unit": "%"}, {"measurement": "inhibition at 1 µM", "setting": "[2]", "result": 0, "unit": "%"}, {"measurement": "inhibition at 1 µM", "setting": "[3]", "result": 0, "unit": "%"}, {"measurement": "inhibition at 1 µM", "setting": "[4]", "result": 0, "unit": "%"}, {"measurement": "inhibition at 1 µM", "setting": "[5]", "result": 0, "unit": "%"}, {"measurement": "inhibition at 1 µM", "setting": "[6]", "result": 0, "unit": "%"}, {"measurement": "inhibition at 1 µM", "setting": "[7]", "result": 0, "unit": "%"}, {"measurement": "inhibition at 1 µM", "setting": "[8]", "result": 9, "unit": "%"}, {"measurement": "inhibition at 1 µM", "setting": "[9]", "result": 0, "unit": "%"}, {"measurement": "inhibition at 1 µM", "setting": "[10]", "result": 8, "unit": "%"}, {"measurement": "inhibition at 1 µM", "setting": "[11]", "result": 10, "unit": "%"}, {"measurement": "inhibition at 1 µM", "setting": "[12]", "result": 0, "unit": "%"}, {"measurement": "inhibition at 1 µM", "setting": "[13]", "result": 0, "unit": "%"}, {"measurement": "inhibition at 1 µM", "setting": "[14]", "result": 18, "unit": "%"}, {"measurement": "inhibition at 1 µM", "setting": "[15]", "result": 15, "unit": "%"}, {"measurement": "inhibition at 1 µM", "setting": "[16]", "result": 11, "unit": "%"}, {"measurement": "inhibition at 1 µM", "setting": "[17]", "result": 0, "unit": "%"}, {"measurement": "inhibition at 1 µM", "setting": "[18]", "result": 71, "unit": "%"}, {"measurement": "inhibition at 1 µM", "setting": "[19]", "result": 21, "unit": "%"}, {"measurement": "inhibition at 1 µM", "setting": "[20]", "result": 0, "unit": "%"}, {"measurement": "inhibition at 1 µM", "setting": "[21]", "result": 14, "unit": "%"}, {"measurement": "inhibition at 1 µM", "setting": "[22]", "result": 15, "unit": "%"}, {"measurement": "inhibition at 1 µM", "setting": "[23]", "result": 27, "unit": "%"}, {"measurement": "inhibition at 1 µM", "setting": "[24]", "result": 0, "unit": "%"}]}]}
